In patent publication US9249129B2, “Morpholino substituted urea derivatives as mTOR inhibitors” (CELLZOME LIMITED, priority 2010, dated 2016):
Read-outs that look alike come from different tables or passages of the source.

Columns and labels:
PI3Kβ = target: T1, PI3Kβ (Homo sapiens, UniProt P42338); test: kinobeads assay, PI3K beta (dot blot detection); format: binding; conditions: Table 4, read-out: Inhibition values (IC50) PI3Kb
T1 construct: endogenous in cells; host or cells: Jurkat cells (ATCC TIB-152) lysate, the only lysate described

[1] = system: S6RP serine-240/244 phosphorylation in HEK293T/17 cells; test: In vitro phospho-S6 cellular assay (pS6RP S240/244); format: cell-based; conditions: Homo sapiens, Table 6, 2 hours, S6RP Ser240/244, read-out: pS6 (phospho-S6 cell assay data, activity level)
Summary of the method: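 HEK293T/17 cells in DMEM with 2% FCS treated with 8 compound concentrations (0.1% DMSO) for 2 h at 37 °C, then lysed. Phospho-S6RP Ser240/244 or phospho-Akt Ser473 quantified by MesoScale sandwich immunoassay with Sulfo-Tag detection; IC50 from variable-slope sigmoidal fit.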

PI3Kγ = target: T2, PI3Kγ (Homo sapiens, UniProt P48736); test: kinobeads assay, PI3K gamma (dot blot detection); format: binding; conditions: Table 4, read-out: Inhibition values (IC50) PI3Kg
T2 construct: endogenous in cells; host or cells: Jurkat cells (ATCC TIB-152) lysate, the only lysate described

mTOR = target: T3, mTOR (Homo sapiens, UniProt P42345); test: mTOR kinobeads assay (dot blot detection); format: binding
T3 construct: endogenous in cells; host or cells: Jurkat cells (ATCC TIB-152, clone E6-1), lysate
Summary of the method: (§1)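 Jurkat cell lysate (5 mg/ml protein) was incubated with test compounds and kinobeads (immobilized phenylthiazole and phenylmorpholin-chromen ligands) for 2 h in the cold with shaking. Bead-bound kinase was SDS-eluted and quantified by antibody dot blot with infrared detection. IC50 values came from dose-response curves.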

[2] = target: T4, DNA-dependent protein kinase (DNA-PK) (Homo sapiens, UniProt P78527); test: kinobeads assay, DNA-PK (dot blot detection); format: binding
T4 construct: endogenous in cells; host or cells: Jurkat cells (ATCC TIB-152, clone E6-1), lysate
T4 sequence (P78527 whole entry): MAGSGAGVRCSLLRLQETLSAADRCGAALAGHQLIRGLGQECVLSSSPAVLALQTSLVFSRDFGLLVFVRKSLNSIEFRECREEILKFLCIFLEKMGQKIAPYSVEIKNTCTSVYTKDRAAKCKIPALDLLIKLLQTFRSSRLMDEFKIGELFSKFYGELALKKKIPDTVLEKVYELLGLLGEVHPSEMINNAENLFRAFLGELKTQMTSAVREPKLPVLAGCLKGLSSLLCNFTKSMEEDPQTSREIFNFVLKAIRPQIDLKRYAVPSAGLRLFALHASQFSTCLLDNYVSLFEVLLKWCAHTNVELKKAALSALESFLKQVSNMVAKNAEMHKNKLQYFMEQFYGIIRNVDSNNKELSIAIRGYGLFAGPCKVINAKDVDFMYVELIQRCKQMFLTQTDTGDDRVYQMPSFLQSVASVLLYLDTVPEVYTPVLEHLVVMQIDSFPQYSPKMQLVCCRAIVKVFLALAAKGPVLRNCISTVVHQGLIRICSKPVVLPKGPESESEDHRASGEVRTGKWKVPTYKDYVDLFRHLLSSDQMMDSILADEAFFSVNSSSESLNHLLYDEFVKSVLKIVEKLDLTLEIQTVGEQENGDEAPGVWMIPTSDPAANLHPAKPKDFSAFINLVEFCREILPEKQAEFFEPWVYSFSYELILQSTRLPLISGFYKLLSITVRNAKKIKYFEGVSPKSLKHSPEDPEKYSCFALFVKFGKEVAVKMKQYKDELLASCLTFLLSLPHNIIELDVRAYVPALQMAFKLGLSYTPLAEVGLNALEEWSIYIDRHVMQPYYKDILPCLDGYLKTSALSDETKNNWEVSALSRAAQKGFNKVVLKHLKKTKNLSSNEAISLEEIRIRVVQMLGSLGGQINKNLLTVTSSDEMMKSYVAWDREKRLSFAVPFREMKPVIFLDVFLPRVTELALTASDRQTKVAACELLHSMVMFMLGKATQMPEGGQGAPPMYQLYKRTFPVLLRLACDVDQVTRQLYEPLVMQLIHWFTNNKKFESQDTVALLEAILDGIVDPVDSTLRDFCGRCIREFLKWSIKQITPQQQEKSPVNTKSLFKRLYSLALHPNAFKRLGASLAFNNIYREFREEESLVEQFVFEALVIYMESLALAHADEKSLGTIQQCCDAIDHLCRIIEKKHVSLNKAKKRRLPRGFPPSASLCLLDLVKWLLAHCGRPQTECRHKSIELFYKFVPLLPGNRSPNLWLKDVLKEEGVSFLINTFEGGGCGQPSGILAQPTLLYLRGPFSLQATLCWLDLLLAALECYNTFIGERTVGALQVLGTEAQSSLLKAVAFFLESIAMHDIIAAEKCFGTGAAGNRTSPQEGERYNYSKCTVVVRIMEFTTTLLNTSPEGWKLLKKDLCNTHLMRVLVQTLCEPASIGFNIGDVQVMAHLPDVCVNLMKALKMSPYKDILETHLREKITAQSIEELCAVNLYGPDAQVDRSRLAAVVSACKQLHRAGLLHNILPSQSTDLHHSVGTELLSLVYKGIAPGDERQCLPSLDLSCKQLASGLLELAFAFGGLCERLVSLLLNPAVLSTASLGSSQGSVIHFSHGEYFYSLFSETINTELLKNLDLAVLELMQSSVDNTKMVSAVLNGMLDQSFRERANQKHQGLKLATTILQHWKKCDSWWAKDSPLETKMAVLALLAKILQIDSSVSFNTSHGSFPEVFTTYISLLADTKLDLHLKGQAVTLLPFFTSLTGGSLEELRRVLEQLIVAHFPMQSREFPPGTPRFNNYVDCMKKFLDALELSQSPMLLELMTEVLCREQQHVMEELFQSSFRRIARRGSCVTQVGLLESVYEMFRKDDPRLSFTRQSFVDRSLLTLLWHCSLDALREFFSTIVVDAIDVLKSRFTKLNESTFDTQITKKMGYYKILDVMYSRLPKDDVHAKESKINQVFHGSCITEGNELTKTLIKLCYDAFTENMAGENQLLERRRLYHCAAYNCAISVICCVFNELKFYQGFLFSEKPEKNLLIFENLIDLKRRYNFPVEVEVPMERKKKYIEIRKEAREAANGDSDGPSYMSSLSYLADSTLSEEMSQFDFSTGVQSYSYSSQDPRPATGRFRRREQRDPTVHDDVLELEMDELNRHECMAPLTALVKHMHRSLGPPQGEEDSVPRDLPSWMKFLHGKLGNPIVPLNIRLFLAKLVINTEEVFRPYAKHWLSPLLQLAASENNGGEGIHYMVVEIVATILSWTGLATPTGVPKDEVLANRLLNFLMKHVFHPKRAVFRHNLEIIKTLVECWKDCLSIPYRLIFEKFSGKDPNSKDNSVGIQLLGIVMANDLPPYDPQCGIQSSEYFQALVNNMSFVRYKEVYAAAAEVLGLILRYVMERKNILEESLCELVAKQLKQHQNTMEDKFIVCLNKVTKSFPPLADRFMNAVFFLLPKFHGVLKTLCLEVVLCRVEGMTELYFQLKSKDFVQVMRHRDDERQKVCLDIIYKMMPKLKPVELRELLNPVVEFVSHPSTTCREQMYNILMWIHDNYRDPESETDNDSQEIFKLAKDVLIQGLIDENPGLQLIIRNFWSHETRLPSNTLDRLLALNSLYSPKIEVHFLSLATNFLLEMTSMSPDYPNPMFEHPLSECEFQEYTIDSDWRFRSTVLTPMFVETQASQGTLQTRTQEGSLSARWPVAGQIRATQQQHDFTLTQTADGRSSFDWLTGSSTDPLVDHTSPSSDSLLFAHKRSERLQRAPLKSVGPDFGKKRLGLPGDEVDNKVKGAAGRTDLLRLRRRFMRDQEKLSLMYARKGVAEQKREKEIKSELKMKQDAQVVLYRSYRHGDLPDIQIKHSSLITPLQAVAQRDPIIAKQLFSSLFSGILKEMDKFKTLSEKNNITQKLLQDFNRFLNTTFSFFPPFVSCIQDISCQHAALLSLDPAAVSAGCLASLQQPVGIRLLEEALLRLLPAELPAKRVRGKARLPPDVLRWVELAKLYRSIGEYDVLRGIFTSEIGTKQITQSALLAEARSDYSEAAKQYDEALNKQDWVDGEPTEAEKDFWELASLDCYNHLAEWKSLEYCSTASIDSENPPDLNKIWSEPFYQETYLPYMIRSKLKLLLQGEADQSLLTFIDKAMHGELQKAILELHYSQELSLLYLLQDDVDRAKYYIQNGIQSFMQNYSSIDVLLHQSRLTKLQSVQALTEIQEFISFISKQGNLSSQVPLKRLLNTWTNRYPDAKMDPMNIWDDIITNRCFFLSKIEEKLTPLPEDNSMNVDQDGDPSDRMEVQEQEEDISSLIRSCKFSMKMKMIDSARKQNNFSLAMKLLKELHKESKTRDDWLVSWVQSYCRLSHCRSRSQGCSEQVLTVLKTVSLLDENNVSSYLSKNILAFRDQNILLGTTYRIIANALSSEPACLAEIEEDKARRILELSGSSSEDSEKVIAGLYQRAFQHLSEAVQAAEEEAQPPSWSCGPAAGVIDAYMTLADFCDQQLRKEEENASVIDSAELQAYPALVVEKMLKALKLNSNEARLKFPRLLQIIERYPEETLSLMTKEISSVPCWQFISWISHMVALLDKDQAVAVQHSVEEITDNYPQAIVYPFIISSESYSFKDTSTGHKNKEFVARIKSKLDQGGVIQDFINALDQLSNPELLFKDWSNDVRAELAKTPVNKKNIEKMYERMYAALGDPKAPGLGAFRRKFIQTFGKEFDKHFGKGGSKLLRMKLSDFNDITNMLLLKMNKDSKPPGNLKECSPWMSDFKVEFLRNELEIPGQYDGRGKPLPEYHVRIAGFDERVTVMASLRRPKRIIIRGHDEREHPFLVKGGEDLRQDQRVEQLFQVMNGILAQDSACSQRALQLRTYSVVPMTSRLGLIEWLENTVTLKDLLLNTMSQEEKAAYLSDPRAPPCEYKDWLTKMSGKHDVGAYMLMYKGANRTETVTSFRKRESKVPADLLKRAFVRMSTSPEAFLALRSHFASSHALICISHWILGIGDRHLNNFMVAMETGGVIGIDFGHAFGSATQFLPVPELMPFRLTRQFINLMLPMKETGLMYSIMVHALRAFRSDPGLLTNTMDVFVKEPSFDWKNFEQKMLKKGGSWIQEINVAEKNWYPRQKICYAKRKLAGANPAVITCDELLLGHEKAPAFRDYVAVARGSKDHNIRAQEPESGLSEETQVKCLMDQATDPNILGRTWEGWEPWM
Summary of the method: as §1

PI3K delta (PI3Kd) = target: T5, PI3K delta (PI3Kd) (Homo sapiens, UniProt O00329); test: kinobeads assay, PI3K delta (dot blot detection); format: binding
T5 construct: endogenous in cells; host or cells: Jurkat cells (ATCC TIB-152, clone E6-1), lysate
Summary of the method: as §1

PI3Kα = target: T6, PI3Kα (Homo sapiens, UniProt P42336); test: kinobeads assay, PI3K alpha (dot blot detection); format: binding; conditions: Table 4, read-out: Inhibition values (IC50) PI3Ka
T6 construct: endogenous in cells; host or cells: Jurkat cells (ATCC TIB-152) lysate, the only lysate described

[3] = Table 4, read-out: Inhibition values (IC50) mTOR
[4] = Table 4, read-out: Inhibition values (IC50) DNAPK
[5] = Table 4, read-out: Inhibition values (IC50) PI3Kd
[6] = Table 2, Jurkat cell lysate, read-out: Inhibition values (IC50) mTor
[7] = Table 2, Jurkat cell lysate, read-out: Inhibition values (IC50) DNAPK
[8] = Table 2, Jurkat cell lysate, read-out: Inhibition values (IC50) PI3Kd

| Compound | IC50 (PI3Kβ) [µM] | IC50 [1] [µM] | IC50 (PI3Kγ) [µM] | IC50 (mTOR; [3]) [µM] | IC50 [2, 4] [µM] | IC50 (PI3K delta (PI3Kd); [5]) [µM] | IC50 (PI3Kα) [µM] | IC50 (mTOR; [6]) [µM] | IC50 [2, 7] [µM] | IC50 (PI3K delta (PI3Kd); [8]) [µM] |
| --- | --- | --- | --- | --- | --- | --- | --- | --- | --- | --- |
| C[C@H]1COCCN1c1nc(-c2ccc(NC(=O)NCCN)cc2)cc(-c2cc(F)ccc2S(C)(=O)=O)n1 [Example 84, (S)-1-(2-aminoethyl)-3-(4-(6-(5-fluoro-2-(methylsulfonyl)phenyl)-2-(3-methylmorpholino)pyrimidin-4-yl)phenyl)urea] | ≥ 10 | 1 to 10 | ≥ 10 | 0.1 to 1 | ≥ 10 | ≥ 10 | ≥ 10 | – | – | – |
| C[C@H]1COCCN1c1nc(-c2ccc(NC(=O)NC(C)(C)CO)cc2)cc(-c2cc(F)ccc2S(C)(=O)=O)n1 [Example 69, (S)-1-(4-(6-(5-fluoro-2-(methylsulfonyl)phenyl)-2-(3-methylmorpholino)pyrimidin-4-yl)phenyl)-3-(1-hydroxy-2-methylpropan-2-yl)urea] | ≥ 10 | < 0.1 | ≥ 10 | 1 to 10 | ≥ 10 | ≥ 10 | ≥ 10 | 1 to 10 | ≥ 10 | ≥ 10 |
| C[C@H]1COCCN1c1nccc(-c2ccc(NC(=O)NCCO)cc2)n1 [Example 58, (S)-1-(2-hydroxyethyl)-3-(4-(2-(3-methylmorpholino)pyrimidin-4-yl)phenyl)urea] | ≥ 10 | 0.1 to 1 | ≥ 10 | 1 to 10 | ≥ 10 | ≥ 10 | ≥ 10 | 1 to 10 | ≥ 10 | ≥ 10 |
| O=C(NCCO)Nc1ccc(-c2nccc(N3CC4CCC(C3)O4)n2)cc1 [Example 50, 1-(4-(4-(8-oxa-3-azabicyclo[3.2.1]octan-3-yl)pyrimidin-2-yl)phenyl)-3-(2-hydroxyethyl)urea] | ≥ 10 | 0.1 to 1 | ≥ 10 | < 0.1 | 1 to 10 | ≥ 10 | ≥ 10 | < 0.1 | 1 to 10 | ≥ 10 |
| C[C@H]1COCCN1c1cc(-c2cc(F)ccc2S(C)(=O)=O)nc(-c2ccc(NC(=O)NC3CC3)cc2F)n1 [Example 66, (S)-1-cyclopropyl-3-(3-fluoro-4-(4-(5-fluoro-2-(methylsulfonyl)phenyl)-6-(3-methylmorpholino)pyrimidin-2-yl)phenyl)urea] | ≥ 10 | 0.1 to 1 | ≥ 10 | 1 to 10 | ≥ 10 | ≥ 10 | ≥ 10 | 1 to 10 | ≥ 10 | ≥ 10 |
| O=C(Nc1ccc(-c2nccc(N3CCOCC3)n2)cc1)NC1CC1 [Example 26, 1-cyclopropyl-3-(4-(4-morpholinopyrimidin-2-yl)phenyl)urea] | 1 to 10 | 0.1 to 1 | ≥ 10 | 0.1 to 1 | 1 to 10 | ≥ 10 | ≥ 10 | 0.1 to 1 | 1 to 10 | ≥ 10 |
| CC(O)CNC(=O)Nc1ccc(-c2cc(-c3cc(F)ccc3S(C)(=O)=O)nc(N3CCOC[C@@H]3C)n2)cc1 (stereo partly drawn) [Example 71, 1-(4-(6-(5-fluoro-2-(methylsulfonyl)phenyl)-2-((S)-3-methylmorpholino)pyrimidin-4-yl)phenyl)-3-(2-hydroxypropyl)urea] | ≥ 10 | < 0.1 | ≥ 10 | 0.1 to 1 | ≥ 10 | ≥ 10 | ≥ 10 | 0.1 to 1 | ≥ 10 | ≥ 10 |
| C[C@H]1COCCN1c1cc(-c2ccncc2F)nc(-c2ccc(NC(=O)NC3CC3)cc2)n1 [Example 24, (S)-1-cyclopropyl-3-(4-(4-(3-fluoropyridin-4-yl)-6-(3-methylmorpholino)pyrimidin-2-yl)phenyl)urea] | ≥ 10 | 0.1 to 1 | ≥ 10 | 0.1 to 1 | ≥ 10 | ≥ 10 | ≥ 10 | 0.1 to 1 | ≥ 10 | ≥ 10 |
| C[C@H]1COCCN1c1nccc(-c2ccc(NC(=O)NC3CC3)cc2)n1 [Example 39, (S)-1-cyclopropyl-3-(4-(2-(3-methylmorpholino)pyrimidin-4-yl)phenyl)urea] | ≥ 10 | 0.1 to 1 | ≥ 10 | 1 to 10 | ≥ 10 | ≥ 10 | ≥ 10 | 1 to 10 | ≥ 10 | ≥ 10 |
